Structures are written as SMILES.

The subject of the test is cy5-TTRS (WT Tte-PreQ1 riboswitch aptamer) (RNA, riboswitch) CUCACCUGGGUCGCAGUAACCCCAGUUAACAAAACAAGGGAGGUAAUUUU
In words: microscale thermophoresis. As to conditions: 100 mM KCl, 1 mM MgCl2; 50 mM Tris pH 7.5, RT, DMSO; apparent, single-site fit.

For `NCc1c[nH]c2nc(N)[nH]c(=O)c12`, the KD is on record as 11.7 ± 0.35 nM.

(Values after publication PMC9228567 (2022).)
